Assay results reported in article PMC6895180 (Nature Communications, 2019).
Where “and” joins values, the source holds several entries; their conditions need not be identical. Identical values can stand only once. Like-named read-outs stand apart in the source and are kept apart here.

Legend:
[1] = tested on: T. brucei NY-SM cells; experiment: RNA quantification (total RNA, RT-qPCR of SL-RNA, 18S rRNA, TERT); format: cell-based, Trypanosoma brucei; details: for RNA Yield: RNA Content: Control 1.00; for RNA Yield: 18S rRNA / RNA Yield: SL-RNA / RNA Yield: TERT: Control about 1
Protocol: After 24 h, the cells were harvested and washed with PBS. […] RNA was extracted using the QIAamp RNA Blood Mini Kit (Qiagen). Total RNA yields were determined using both Nanodrop 2000 spectrometry and Qubit fluorimetric RNA content analysis. Additionally, specific transcripts in the RNA pool were quantified using RT-qPCR targeting the SL-RNA, 18S rRNA and transcripts encoding the telomerase reverse transcriptase (TERT)[28],[56]. A list of primers used is provided in the Supplementary Methods section of the Supplementary Information.

[2] = tested on: T. brucei NY-SM cells; experiment: Susceptibility assay, NY-SM cells; format: cell-based, Trypanosoma brucei brucei
Protocol: (§1) Susceptibility assays with NY-SM[51], BS221[48] and TbAT1-KO[48] (derived from BS221) cells were performed using 10 concentrations of a 4-fold compound dilution series starting at 64 µM. Parasites were seeded at 4 × 10^3 parasites per well and exposed to drug compound for 72 h, after which resazurin (final concentration of 10 µg mL^−1) was added to the plates. Fluorescence intensities were determined after 6 h.

[3] = tested on: bloodstream form T. brucei 427WT; experiment: Wash-out experiments with T. brucei; format: cell-based, Trypanosoma brucei
Protocol: Wash-out experiments with T. brucei
A culture of bloodstream form T. brucei 427WT, at mid-log phase of growth, was harvested and resuspended at a density of 10^5 cells mL-1, in fresh medium containing either no test compound, or […]
The cultures were incubated under standard conditions (37 °C/5% CO2) and cell counts were performed manually using a haemocytometer under phase contrast microscopy, every 24 h. The culture in continuous presence of analogue 9 was split in two at 8 h and 48 h (as indicated with arrows in Supplementary Figure S2). The split cultures were centrifuged and resuspended in the same volume of either fresh medium without test compound or fresh medium with the same concentration of compound 9 as before, reincubated. The detection limit for the manual cell count was 10^4 cells mL-1. […]

[4] = tested on: T. b. brucei BS221; experiment: Susceptibility assay, BS221 cells; format: cell-based, Trypanosoma brucei brucei; details: for IC50: single determinations
Protocol: as §1

[5] = tested on: T. brucei Lister 427 cells; experiment: Nucleotide pool analysis (HPLC); format: cell-based, Trypanosoma brucei; details: 25 μM, versus untreated trypanosomes
Description: (1 picture or pasted object on this page, not shown here)
The following primers were used: […]

[6] = Metabolic stability, pooled human liver microsomes (phase I and II)
Protocol: Mouse, rat, and pooled human liver microsomes were purchased from a commercial source (Corning) and stored at -80 °C. NADPH generating system solutions A and B and UGT reaction mix solutions A and B (Corning) were kept at -20°C. The test compound and the reference compounds diclofenac (MW […]
microsomal stability assay was carried out based on the BD Biosciences Guidelines for Use (TF000017 Rev1.0) with minor adaptations. Metabolic stability of the compounds was studied through the CYP450 superfamily (phase I metabolism) by fortification with reduced nicotinamide adenine dinucleotide phosphate (NADPH) and through uridine glucuronosyl-transferase (UGT) enzymes (phase II metabolism) by fortification with uridine diphosphate glucuronic acid (UDPGA). For the CYP450 and other NADPH dependent enzymes, both compounds were incubated at 5 µM together with 0.5 mg mL-1 liver microsomes in potassium phosphate buffer in a reaction started by the addition of 1 mM NADPH […]
At these time points, 20 µL was withdrawn from the reaction mixture and 80 µL cold acetonitrile (ACN) containing the internal standard tolbutamide, was added to inactivate the enzymes and precipitate the proteins. The mixture was vortexed for 30 s and centrifuged at 4 °C for 5 min at 15,000 rpm. The supernatant was stored at -80°C until analysis. For the UGT enzymes, both compounds were incubated at 5 µM together with 0.5 mg mL-1 liver microsomes in a reaction started by the addition of 2 mM UDPGA cofactor. The corresponding loss of parent compound was determined using liquid chromatography (UPLC) (Waters AquityTM) coupled with tandem quadrupole mass spectrometry (MS²) (Waters XevoTM), equipped with an electrospray ionization (ESI) interface and operated in multiple reaction monitoring (MRM) mode. […]

For `Nc1ncnc2c1ccn2[C@@H]1O[C@H](CO)C[C@H]1O` [Compound 9, 3’-deoxytubercidin], the “RNA Yield: RNA Content” value ([1]; 1.4 nM) was 1.35 and 1.46, the “RNA Yield: 18S rRNA” value ([1]; 1.4 nM) was 0.9222 and 0.9324 and 0.9996 and 1.001 and the “RNA Yield: SL-RNA” value ([1]; 1.4 nM) was 0.789 and 0.7785 and 0.978 and 0.9385. The “RNA Yield: TERT” value ([1]; 1.4 nM) was 0.9232 and 0.9182 and 1.015 and 1.009, the “RNA Yield: RNA Content” value ([1]; 3.5 nM) was 0.81 and 1.07 and the “RNA Yield: 18S rRNA” value ([1]; 3.5 nM) was 0.9119 and 1.014 and 1.009 and 1.044. For the same compound, the “RNA Yield: SL-RNA” value ([1]; 3.5 nM) was 0.7939 and 0.7953 and 1.021 and 1.016, the “RNA Yield: TERT” value ([1]; 3.5 nM) was 0.9429 and 0.9282 and 1.046 and 1.035 and the “RNA Yield: RNA Content” value ([1]; 7 nM) was 0.50 and 0.86. The “RNA Yield: 18S rRNA” value ([1]; 7 nM) was 1.036 and 1.037, the “RNA Yield: SL-RNA” value ([1]; 7 nM) was 1.052 and 1.049 and the “RNA Yield: TERT” value ([1]; 7 nM) was 1.046 and 1.042. For the same compound, the “impact on RNA synthesis” value ([1]; 24 h, various concentrations) was “absence of a major impact on the total RNA pool and the levels of specific transcripts”, the IC50 ([2]; NYsm parental cells, single replicates, read-out: IC50) was 7.98 nM and 7.87 nM and the “Inhibition (%)” value ([2]; NYsm, 0.000244141 µM) was 0% and 3.5% and 5.32% and 2.3%. The “Inhibition (%)” value ([2]; NYsm, 0.000976563 µM) was 5.56% and 15% and 14% and 7%, the “Inhibition (%)” value ([2]; NYsm, 0.00390625 µM) was 52% and 44% and the “Inhibition (%)” value ([2]; NYsm, 0.015625 µM) was 98%. For the same compound, the “Inhibition (%)” value ([2]; NYsm, 1 µM) was 98%, the IC50 ([2]; Trypanosoma brucei, NYsm parental cells, single replicates, read-out: IC50) was 7.92 nM and the inhibition at 0.00390625 µM ([2]; Trypanosoma brucei, NYsm, 0.00390625 µM) was 53%. For the same compound, the inhibition at 0.015625 µM ([2]; Trypanosoma brucei, NYsm, 0.015625 µM) was 99%, the inhibition at 0.0625 µM ([2]; Trypanosoma brucei, NYsm, 0.0625 µM) was 99% and the inhibition at 0.25 µM ([2]; Trypanosoma brucei, NYsm, 0.25 µM) was 100%. It also gave an inhibition at 1 µM ([2]; Trypanosoma brucei, NYsm, 1 µM) of 100%, an inhibition at 4 µM ([2]; Trypanosoma brucei, NYsm, 4 µM) of 100% and an inhibition at 16 µM ([2]; Trypanosoma brucei, NYsm, 16 µM) of 100%. The inhibition at 64 µM ([2]; Trypanosoma brucei, NYsm, 64 µM) was 100%, the IC50 ([2]; Trypanosoma brucei, single determinations, read-out: IC50, NYsm) was 5.2 nM and the IC50 ([2]; single determinations, read-out: IC50, NYsm) was 5.9 nM and 6.6 nM and 3.6 nM and 4.6 nM and 3.7 nM and 6.4 nM. The “parasites recovered after wash-out” value ([3]; 0.500 µM, 48 h of exposure and subsequent removal, up to 120 h) was “no parasites were recovered”, the Manual cell count ([3]; Exp. 1, 0.165 µM, 8 h wash, 8 h) was 60000 cells mL-1 and the Manual cell count ([3]; Exp. 1, 0.165 µM, 8 h wash, 24 h) was 10000 cells mL-1. The Manual cell count ([3]; Exp. 1, 0.165 µM, 8 h wash, 48 h) was 40000 cells mL-1, the Manual cell count ([3]; Exp. 1, 0.165 µM, 8 h wash, 72 h) was 600000 cells mL-1 and the Manual cell count ([3]; Exp. 1, 0.165 µM, 8 h wash, 96 h) was 3800000 cells mL-1. It also gave a Manual cell count ([3]; Exp. 1, 0.165 µM, 8 h wash, 120 h) of 1300000 cells mL-1, a Manual cell count ([3]; Exp. 1, 0.165 µM, 48 h wash, 72 h) of 20000 cells mL-1 and a Manual cell count ([3]; Exp. 1, 0.165 µM, 48 h wash, 96 h) of 40000 cells mL-1. It also gave a Manual cell count ([3]; Exp. 1, 0.165 µM, 48 h wash, 120 h) of 280000 cells mL-1, a Manual cell count ([3]; Exp. 1, 0.165 µM, Continuous, 8 h) of 120000 cells mL-1 and a Manual cell count ([3]; Exp. 1, 0.165 µM, Continuous, 96 h) of 10000 cells mL-1. For the same compound, the Manual cell count ([3]; Exp. 1, 0.165 µM, Continuous, 120 h) was 30000 cells mL-1, the Manual cell count ([3]; Exp. 2, 0.500 µM, 8 h wash, 8 h) was 55000 cells mL-1 and the Manual cell count ([3]; Exp. 2, 0.500 µM, 8 h wash, 24 h) was 10000 cells mL-1. For the same compound, the Manual cell count ([3]; Exp. 2, 0.500 µM, 8 h wash, 48 h) was 10000 cells mL-1, the Manual cell count ([3]; Exp. 2, 0.500 µM, 8 h wash, 72 h) was 10000 cells mL-1 and the Manual cell count ([3]; Exp. 2, 0.500 µM, 8 h wash, 96 h) was 30000 cells mL-1. The Manual cell count ([3]; Exp. 2, 0.500 µM, 8 h wash, 120 h) was 430000 cells mL-1, the Manual cell count ([3]; Exp. 2, 0.500 µM, Continuous, 8 h) was 110000 cells mL-1 and the “Inhibition (%)” value ([4]; BS221, 0.015625 µM) was 98% and 95%. For the same compound, the “Inhibition (%)” value ([4]; BS221, 0.25 µM) was 98%, the “Inhibition (%)” value ([4]; BS221, 1 µM) was 98% and the “Inhibition (%)” value ([4]; BS221, 4 µM) was 98%. The “Inhibition (%)” value ([4]; BS221, 16 µM) was 98%, the inhibition at 0.000244141 µM ([4]; Trypanosoma brucei, BS221, 0.000244141 µM) was 0% and the inhibition at 0.000976563 µM ([4]; Trypanosoma brucei, BS221, 0.000976563 µM) was 0%. The inhibition at 0.015625 µM ([4]; Trypanosoma brucei, BS221, 0.015625 µM) was 97%, the inhibition at 0.0625 µM ([4]; Trypanosoma brucei, BS221, 0.0625 µM) was 99% and the inhibition at 0.25 µM ([4]; Trypanosoma brucei, BS221, 0.25 µM) was 99%. For the same compound, the inhibition at 1 µM ([4]; Trypanosoma brucei, BS221, 1 µM) was 99%, the inhibition at 4 µM ([4]; Trypanosoma brucei, BS221, 4 µM) was 100% and the inhibition at 16 µM ([4]; Trypanosoma brucei, BS221, 16 µM) was 99%. It also gave an inhibition at 64 µM ([4]; Trypanosoma brucei, BS221, 64 µM) of 99%, an IC50 ([4]; Trypanosoma brucei) of 6.8 nM and an EC50 ([4]; Trypanosoma brucei, BS221, mean and SEM, n = 2, read-out: EC50, parental line of AT1-KO) of 6.4 ± 0.4 nM. For the same compound, the IC50 [4] was 6.1 nM and 5.4 nM and 7.3 nM, the “effect on intracellular purine and pyrimidine nucleotide pools” value [5] was “did not cause any change in the balance or total quantity of intracellular purine and pyrimidine nucleotides” and the “% analogue 9 remaining, EXP 1 / EXP 2” value ([6]; microsomes, 0 min, 5 µM) was 100%. For the same compound, the “% analogue 9 remaining, Mean” value ([6]; microsomes, 0 min, 5 µM) was 100% and the metabolic stability ([6]; s9, 0.5 h) was “metabolically stable”.
